Assay results taken from the supplement of paper PMC10307832.

Columns and labels:
Test in all cases: relative viability (nuclei count vs DMSO), 5 days (fraction); higher = more cells survive
Kobe2602 + Phenformin = compound: C1=CC(=CC=C1NC(=S)NNC2=C(C=C(C=C2[N+](=O)[O-])C(F)(F)F)[N+](=O)[O-])F [Kobe2602] + N=C(N)NC(=N)NCCc1ccccc1 [Phenformin] (partner 250 µM)
Outline: (§1)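 Lung cancer cell lines were seeded in 1536-well plates and dosed by pin tool the next day, with either a single drug or a fixed anchor-drug dose combined with five library-drug doses (not always all listed) spaced in √10 steps. Five days later, one step fixed the cells and stained their nuclei (final 0.05% Triton X-100, 1% formaldehyde, 1 ug/ml Hoechst), and nuclei were counted on 4× images. Relative viability is the nuclei count in treated wells divided by the count in vehicle wells, and each value is the median of duplicate plates.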

Cabozantinib + Lapatinib = compound: COc1cc2nccc(Oc3ccc(NC(=O)C4(C(=O)Nc5ccc(F)cc5)CC4)cc3)c2cc1OC [Cabozantinib] + CS(=O)(=O)CCNCc1ccc(-c2ccc3ncnc(Nc4ccc(OCc5cccc(F)c5)c(Cl)c4)c3c2)o1 [Lapatinib] (partner 2 µM)
Outline: as §1

Zosuquidar + Phenformin = compound: O[C@@H](COc1cccc2ncccc12)CN1CCN([C@@H]2c3ccccc3[C@@H]3[C@H](c4ccccc42)C3(F)F)CC1 [Zosuquidar] + N=C(N)NC(=N)NCCc1ccccc1 [Phenformin] (partner 250 µM)
Outline: as §1

Zosuquidar + Olaparib = compound: O[C@@H](COc1cccc2ncccc12)CN1CCN([C@@H]2c3ccccc3[C@@H]3[C@H](c4ccccc42)C3(F)F)CC1 [Zosuquidar] + O=C(c1cc(Cc2n[nH]c(=O)c3ccccc23)ccc1F)N1CCN(C(=O)C2CC2)CC1 [Olaparib] (partner 8 µM)
Outline: as §1

Cell Line | relative viability (Kobe2602 + Phenformin; first compound 0.2 µM) | relative viability (Kobe2602 + Phenformin; first compound 0.6325 µM) | relative viability (Kobe2602 + Phenformin; first compound 2 µM) | relative viability (Kobe2602 + Phenformin; first compound 6.325 µM) | relative viability (Kobe2602 + Phenformin; first compound 20 µM) | relative viability (Cabozantinib + Lapatinib; first compound 0.02 µM) | relative viability (Cabozantinib + Lapatinib; first compound 0.06325 µM) | relative viability (Cabozantinib + Lapatinib; first compound 0.2 µM) | relative viability (Cabozantinib + Lapatinib; first compound 0.6325 µM) | relative viability (Cabozantinib + Lapatinib; first compound 2 µM) | relative viability (Zosuquidar + Phenformin; first compound 0.01 µM) | relative viability (Zosuquidar + Phenformin; first compound 0.03162 µM) | relative viability (Zosuquidar + Phenformin; first compound 0.1 µM) | relative viability (Zosuquidar + Phenformin; first compound 0.3162 µM) | relative viability (Zosuquidar + Phenformin; first compound 1 µM) | relative viability (Zosuquidar + Olaparib; first compound 0.01 µM) | relative viability (Zosuquidar + Olaparib; first compound 0.03162 µM) | relative viability (Zosuquidar + Olaparib; first compound 0.1 µM) | relative viability (Zosuquidar + Olaparib; first compound 0.3162 µM) | relative viability (Zosuquidar + Olaparib; first compound 1 µM)
NCI-H1355 | 0.479 | 0.479 | 0.476 | 0.415 | 0.433 | 0.825 | 1.12 | 1.02 | 0.979 | 1.03 | 0.466 | 0.438 | 0.371 | 0.502 | 0.471 | 0.677 | 0.709 | 0.791 | 0.826 | 0.809
NCI-H1395 | 0.484 | 0.435 | 0.453 | 0.451 | 0.456 | 0.913 | 1.03 | 0.948 | 1.1 | 0.905 | 0.44 | 0.482 | 0.418 | 0.497 | 0.466 | 0.469 | 0.441 | – | 0.501 | 0.443
NCI-H1437 | 0.335 | 0.282 | 0.279 | 0.297 | 0.352 | 0.892 | 0.91 | 0.798 | 0.823 | 0.779 | 0.31 | 0.327 | 0.287 | 0.313 | 0.328 | 0.591 | 0.646 | 0.669 | 0.604 | 0.662
NCI-H1650 | 0.483 | 0.57 | 0.395 | 0.388 | 0.366 | 0.788 | 0.916 | 0.904 | 0.708 | 0.568 | 0.391 | 0.321 | 0.383 | 0.443 | 0.353 | 0.95 | 0.812 | 0.725 | 0.714 | 0.742
NCI-H1651 | 0.415 | 0.37 | 0.356 | 0.333 | 0.414 | 0.812 | 0.794 | 0.71 | 0.786 | 0.754 | 0.314 | 0.343 | 0.282 | 0.401 | 0.307 | 0.181 | 0.194 | 0.169 | 0.2 | 0.179
NCI-H1666 | 0.594 | 0.572 | 0.534 | 0.581 | 0.573 | 0.693 | 0.621 | 0.677 | 0.712 | 0.595 | 0.542 | 0.577 | 0.571 | 0.584 | 0.521 | 0.75 | 0.795 | 0.73 | 0.815 | 0.787
NCI-H1734 | 0.413 | 0.408 | 0.422 | 0.347 | 0.388 | 0.98 | 1.09 | 0.984 | 1.08 | 1.01 | 0.395 | 0.372 | 0.407 | 0.466 | 0.385 | 0.614 | 0.674 | 0.613 | 0.655 | 0.646
NCI-H1755 | 0.615 | 0.608 | 0.601 | 0.662 | 0.568 | 1.02 | 1.12 | 1.05 | 0.964 | 0.932 | 0.425 | 0.621 | 0.489 | 0.624 | 0.589 | 0.873 | 0.88 | 0.778 | 0.92 | 0.867
NCI-H1792 | 0.253 | 0.344 | 0.249 | 0.316 | 0.31 | 0.78 | 1.13 | 0.846 | 0.862 | 0.85 | 0.35 | 0.287 | 0.279 | 0.31 | 0.295 | 0.334 | 0.424 | 0.339 | 0.422 | 0.396
NCI-H1793 | 0.33 | 0.398 | 0.399 | 0.333 | 0.446 | 0.95 | 1.15 | 0.571 | 0.508 | 0.594 | 0.387 | 0.346 | – | 0.469 | 0.359 | 0.971 | – | – | 1.01 | 0.758
NCI-H1915 | 0.366 | 0.38 | 0.37 | 0.366 | 0.361 | 0.946 | 0.987 | 0.967 | 0.999 | 0.989 | 0.377 | 0.386 | 0.347 | 0.38 | 0.37 | 0.267 | 0.261 | 0.268 | 0.265 | 0.291
NCI-H1944 | 0.212 | 0.216 | 0.206 | 0.201 | 0.209 | – | 0.858 | 0.793 | 0.756 | 0.884 | 0.19 | 0.192 | 0.196 | 0.225 | 0.196 | 0.404 | 0.407 | 0.384 | 0.516 | 0.385
NCI-H1975 | 0.433 | 0.442 | 0.427 | 0.379 | 0.388 | 0.969 | 0.986 | 0.852 | 0.845 | 0.797 | 0.397 | 0.378 | 0.417 | 0.42 | 0.399 | 0.722 | 0.753 | 0.784 | 0.734 | 0.866
NCI-H1993 | 0.51 | 0.453 | 0.503 | 0.501 | 0.515 | 0.76 | 0.807 | 0.792 | 0.725 | 0.814 | 0.422 | 0.596 | 0.438 | 0.476 | 0.533 | 0.949 | 1.01 | – | 1.19 | 1.05
NCI-H2009 | 0.454 | 0.503 | 0.504 | 0.421 | 0.305 | 1.06 | 0.959 | 1 | 0.965 | 0.941 | 0.503 | 0.47 | 0.481 | 0.518 | 0.498 | 0.631 | 0.611 | 0.684 | 0.639 | 0.65
